Tested on: B6 mice (C57BL)
Assay: Blood glucose in B6 mice, high- versus low-molecular-weight polyphenols
Type: in vivo
Settings: 0.27 mg/day intraperitoneal, 15 days
Experimental: The procedures for the experiment were similar to those employed in Example 7. In this experiment, B6 mice (C57BL; purchased from CLEA Japan, Inc.) were used. […] The low-molecular-weight polyphenol group was given a PBS solution of epicatechin daily through intraperitonal injection at a dose of 0.27 mg/day. Blood samples were collected on the first day of the administration and 15 days thereafter for the measurement of blood glucose levels. […] The horizontal axis in the figure represents the number of days from the start of the administration. The vertical axis represents percentage (%) changes in blood glucose based on the blood glucose level on the first day at 100.

Structure (SMILES): Oc1cc(O)c2c(c1)O[C@H](c1ccc(O)c(O)c1)[C@H](O)C2 [low-molecular-weight polyphenols, epicatechin]
- decrease in blood glucose relative to the first day (100): little change

Reference: patent US20090047368A1, “Polymeric polyphenol extracted from fermented tea, therapeutic agent for mitochondrial disease, preventive/therapeutic agent for diabetes mellitus, and food or beverage” (University Of Tsukuba, priority 2004, published 2009)
